Test results published in US10844077B2, “Thiazolyl-containing compounds for treating proliferative diseases” (Dana-Farber Cancer Institute, Inc., priority 2014, dated 2020).
Several values for one entry are separate records, joined by “and”; a condition that tells them apart may be missing. Identical values can stand only once. Like-named read-outs stand apart in the source and are kept apart here.

How the values were obtained:
Type in all cases: cell-based
[1] = molecular target: kinases in BCWM.1 cells (Homo sapiens, UniProt Q99755); details: PIP5K1A; ATP; 1 μM, 90 min; GF
Experimental: (§1) The cells were harvested and lysed. […] Bound kinases were identified and quantitated by ACTIVX as described in Patricelli et al., Biochemistry, 2007, 46(2): 350-358. The compounds were tested in duplicates against duplicate or quadruplicate control samples.

[2] = molecular target: kinases in BCWM.1 cells (Homo sapiens, UniProt O94806); details: PKD3; Lys1; 1 μM, 90 min; GF
Experimental: as §1

[3] = molecular target: kinases in BCWM.1 cells (Homo sapiens, UniProt Q96GX5); details: MASTL, 1 μM, GF
Experimental: as §1

[4] = molecular target: kinases in BCWM.1 cells (Homo sapiens, UniProt Q8IVH8); details: KHS2; Lys1; 1 μM; GF
Experimental: as §1

[5] = molecular target: kinases in BCWM.1 cells (Homo sapiens, UniProt P06241); details: FYN; Lys1; 1 μM; GF
Chain of kinases in BCWM.1 cells (Homo sapiens, UniProt P06241) (P06241 2-537 limits assumed): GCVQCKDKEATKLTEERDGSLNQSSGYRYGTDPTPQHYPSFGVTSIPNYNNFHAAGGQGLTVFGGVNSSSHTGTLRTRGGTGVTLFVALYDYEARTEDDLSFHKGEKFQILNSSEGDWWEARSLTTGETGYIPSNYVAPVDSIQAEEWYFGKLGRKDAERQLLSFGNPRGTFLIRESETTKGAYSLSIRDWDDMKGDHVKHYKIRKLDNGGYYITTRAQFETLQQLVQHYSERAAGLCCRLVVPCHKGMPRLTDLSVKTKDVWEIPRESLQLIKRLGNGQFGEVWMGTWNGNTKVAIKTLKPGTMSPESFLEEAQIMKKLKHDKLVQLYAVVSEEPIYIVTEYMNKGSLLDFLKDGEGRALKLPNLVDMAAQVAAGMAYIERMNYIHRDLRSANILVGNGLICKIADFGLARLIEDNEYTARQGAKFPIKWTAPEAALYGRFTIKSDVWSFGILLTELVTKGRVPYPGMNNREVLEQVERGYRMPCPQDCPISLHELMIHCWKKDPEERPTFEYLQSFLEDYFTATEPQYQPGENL
Experimental: as §1

[6] = molecular target: kinases in BCWM.1 cells (Homo sapiens, UniProt O75582); details: MSK1 domain1; Lys2; 1 μM; GF
Experimental: as §1

[7] = molecular target: kinases in BCWM.1 cells (Homo sapiens, UniProt Q14680); details: MELK; Lys2; 1 μM; GF
Experimental: as §1

[8] = molecular target: kinases in BCWM.1 cells (Homo sapiens, UniProt Q96GD4); details: AurB; Lys1; 1 μM; GF
Experimental: as §1

[9] = molecular target: kinases in BCWM.1 cells (Homo sapiens, UniProt P28482); details: Erk2; Lys2; 1 μM; GF
Chain of kinases in BCWM.1 cells (Homo sapiens, UniProt P28482) (P28482 2-360 limits assumed): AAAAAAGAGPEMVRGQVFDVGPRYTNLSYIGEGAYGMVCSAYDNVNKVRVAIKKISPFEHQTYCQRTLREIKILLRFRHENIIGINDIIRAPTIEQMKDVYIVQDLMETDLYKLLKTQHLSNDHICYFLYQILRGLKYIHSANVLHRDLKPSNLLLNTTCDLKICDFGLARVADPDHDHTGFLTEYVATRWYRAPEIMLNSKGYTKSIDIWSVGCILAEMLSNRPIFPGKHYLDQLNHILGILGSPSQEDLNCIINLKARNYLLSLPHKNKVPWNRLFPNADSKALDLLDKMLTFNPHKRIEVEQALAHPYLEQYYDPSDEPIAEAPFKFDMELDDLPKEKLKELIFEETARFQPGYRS
Experimental: as §1

[10] = molecular target: kinases in BCWM.1 cells (Homo sapiens, UniProt O95382); details: MAP3K6; Lys2; 1 μM; GF
Experimental: as §1

[11] = molecular target: kinases in BCWM.1 cells (Homo sapiens, UniProt P41743); details: PKCi; Lys1; 1 μM, 90 min; GF
Chain of kinases in BCWM.1 cells (Homo sapiens, UniProt P41743) (P41743 2-596 limits assumed): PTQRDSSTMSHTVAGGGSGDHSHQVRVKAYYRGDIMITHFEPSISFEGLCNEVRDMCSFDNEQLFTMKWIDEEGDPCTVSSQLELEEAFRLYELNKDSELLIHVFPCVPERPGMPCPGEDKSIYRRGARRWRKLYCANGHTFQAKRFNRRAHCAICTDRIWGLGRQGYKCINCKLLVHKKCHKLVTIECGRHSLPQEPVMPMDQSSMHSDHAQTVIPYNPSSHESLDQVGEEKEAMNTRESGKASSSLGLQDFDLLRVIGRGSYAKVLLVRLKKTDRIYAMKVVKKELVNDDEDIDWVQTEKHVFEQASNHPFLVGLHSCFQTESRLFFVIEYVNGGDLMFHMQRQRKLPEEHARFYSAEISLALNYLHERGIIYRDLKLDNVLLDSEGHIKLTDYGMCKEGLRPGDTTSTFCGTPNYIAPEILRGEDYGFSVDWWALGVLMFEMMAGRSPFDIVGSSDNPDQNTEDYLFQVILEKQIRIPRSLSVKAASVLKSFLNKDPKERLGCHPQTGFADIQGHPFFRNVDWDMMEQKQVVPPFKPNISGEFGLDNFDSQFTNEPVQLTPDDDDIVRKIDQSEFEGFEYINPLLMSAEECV
Experimental: as §1

[12] = molecular target: kinases in BCWM.1 cells (Homo sapiens, UniProt Q5TCX8); details: MLK4; Lys2; 1 μM; GF
Experimental: as §1

[13] = molecular target: kinases in BCWM.1 cells (Homo sapiens, UniProt P17612); details: PKACa; Lys2; 1 μM, 90 min; GF
Experimental: as §1

[14] = molecular target: kinases in BCWM.1 cells (Homo sapiens, UniProt P27361); details: Erk1; Lys2; 1 μM; GF
Chain of kinases in BCWM.1 cells (Homo sapiens, UniProt P27361) (P27361 2-379 limits assumed): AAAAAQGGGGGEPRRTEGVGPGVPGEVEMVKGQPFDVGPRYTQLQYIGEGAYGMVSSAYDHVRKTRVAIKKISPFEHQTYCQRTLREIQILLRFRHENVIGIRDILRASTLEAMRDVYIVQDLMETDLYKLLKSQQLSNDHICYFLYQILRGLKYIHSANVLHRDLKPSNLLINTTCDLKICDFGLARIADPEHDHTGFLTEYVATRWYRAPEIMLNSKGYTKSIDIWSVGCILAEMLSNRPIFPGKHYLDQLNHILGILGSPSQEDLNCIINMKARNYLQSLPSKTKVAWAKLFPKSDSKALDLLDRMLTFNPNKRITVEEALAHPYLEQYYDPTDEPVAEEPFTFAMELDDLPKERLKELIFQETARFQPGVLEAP
Experimental: as §1

[15] = molecular target: kinases in BCWM.1 cells (Homo sapiens, UniProt P06239); details: LCK; Activation Loop; 1 μM; GF
Chain of kinases in BCWM.1 cells (Homo sapiens, UniProt P06239) (P06239 2-509 limits assumed): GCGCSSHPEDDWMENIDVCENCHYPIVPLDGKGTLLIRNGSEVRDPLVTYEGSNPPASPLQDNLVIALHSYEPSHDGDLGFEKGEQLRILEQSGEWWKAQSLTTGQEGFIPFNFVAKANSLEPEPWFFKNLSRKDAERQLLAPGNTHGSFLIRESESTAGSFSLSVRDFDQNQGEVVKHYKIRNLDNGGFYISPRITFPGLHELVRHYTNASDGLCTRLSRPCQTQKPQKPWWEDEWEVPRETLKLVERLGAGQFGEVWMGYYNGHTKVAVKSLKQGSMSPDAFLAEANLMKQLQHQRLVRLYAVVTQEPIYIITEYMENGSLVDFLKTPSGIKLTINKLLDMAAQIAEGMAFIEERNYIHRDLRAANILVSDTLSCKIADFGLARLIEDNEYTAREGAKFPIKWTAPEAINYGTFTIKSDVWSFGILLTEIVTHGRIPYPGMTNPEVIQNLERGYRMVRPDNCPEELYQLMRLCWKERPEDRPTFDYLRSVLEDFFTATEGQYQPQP
Experimental: as §1

[16] = molecular target: kinases in BCWM.1 cells (Homo sapiens, UniProt Q9Y2U5); details: MAP3K2; Lys1; 1 μM; GF
Experimental: as §1

[17] = molecular target: kinases in BCWM.1 cells (Homo sapiens, UniProt P50613); details: CDK7; Lys2; 1 μM; GF
Chain of kinases in BCWM.1 cells (Homo sapiens, UniProt P50613) (P50613 2-346 limits assumed): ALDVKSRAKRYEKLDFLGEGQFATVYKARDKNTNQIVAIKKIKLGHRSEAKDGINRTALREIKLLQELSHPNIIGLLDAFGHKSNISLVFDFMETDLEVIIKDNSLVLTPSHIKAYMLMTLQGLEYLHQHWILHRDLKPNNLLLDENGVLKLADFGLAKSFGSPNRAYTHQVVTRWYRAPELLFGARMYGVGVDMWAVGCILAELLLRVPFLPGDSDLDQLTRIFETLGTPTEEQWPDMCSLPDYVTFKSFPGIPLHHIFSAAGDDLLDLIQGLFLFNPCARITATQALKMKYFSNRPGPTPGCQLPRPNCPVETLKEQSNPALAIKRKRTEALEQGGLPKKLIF
Experimental: as §1

[18] = molecular target: kinases in BCWM.1 cells (Homo sapiens, UniProt Q06187); details: BTK; Activation Loop; 1 μM; GF
Chain of kinases in BCWM.1 cells (Homo sapiens, UniProt Q06187) (Q06187 2-659 limits assumed): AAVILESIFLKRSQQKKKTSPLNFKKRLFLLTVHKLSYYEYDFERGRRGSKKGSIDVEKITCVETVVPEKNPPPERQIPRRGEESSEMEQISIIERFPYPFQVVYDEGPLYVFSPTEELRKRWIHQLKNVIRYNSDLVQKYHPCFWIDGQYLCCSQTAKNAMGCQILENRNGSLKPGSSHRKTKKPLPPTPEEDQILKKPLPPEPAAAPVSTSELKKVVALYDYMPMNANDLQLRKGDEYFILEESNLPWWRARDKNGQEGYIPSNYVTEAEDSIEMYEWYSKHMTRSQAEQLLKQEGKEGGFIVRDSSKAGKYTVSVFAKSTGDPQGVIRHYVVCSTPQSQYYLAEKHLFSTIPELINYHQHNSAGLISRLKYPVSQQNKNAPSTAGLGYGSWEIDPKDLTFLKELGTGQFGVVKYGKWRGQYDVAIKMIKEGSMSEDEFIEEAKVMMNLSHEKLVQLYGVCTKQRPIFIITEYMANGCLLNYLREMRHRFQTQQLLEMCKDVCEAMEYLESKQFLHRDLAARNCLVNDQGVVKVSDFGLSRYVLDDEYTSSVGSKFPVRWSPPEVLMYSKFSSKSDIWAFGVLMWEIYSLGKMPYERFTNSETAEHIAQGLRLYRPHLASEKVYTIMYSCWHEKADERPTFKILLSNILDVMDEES
Experimental: as §1

[19] = molecular target: kinases in BCWM.1 cells (Homo sapiens, UniProt P41240); details: CSK; Activation Loop; 1 μM; GF
Chain of kinases in BCWM.1 cells (Homo sapiens, UniProt P41240) (P41240 2-450 limits assumed): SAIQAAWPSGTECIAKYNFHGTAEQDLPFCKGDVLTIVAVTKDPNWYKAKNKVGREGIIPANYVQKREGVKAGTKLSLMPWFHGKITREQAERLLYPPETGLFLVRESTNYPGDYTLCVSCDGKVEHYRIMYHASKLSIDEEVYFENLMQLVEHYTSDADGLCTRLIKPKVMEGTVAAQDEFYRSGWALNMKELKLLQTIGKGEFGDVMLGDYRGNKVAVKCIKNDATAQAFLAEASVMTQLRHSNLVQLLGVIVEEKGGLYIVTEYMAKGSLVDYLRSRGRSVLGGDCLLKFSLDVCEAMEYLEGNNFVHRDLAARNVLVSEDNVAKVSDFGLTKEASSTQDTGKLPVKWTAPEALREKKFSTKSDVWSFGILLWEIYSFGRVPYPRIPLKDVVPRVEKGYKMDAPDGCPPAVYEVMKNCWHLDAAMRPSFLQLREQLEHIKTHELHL
Experimental: as §1

[20] = molecular target: kinases in BCWM.1 cells (Homo sapiens, UniProt Q5S007); details: LRRK2; Lys2; 1 μM; GF
Experimental: as §1

[21] = molecular target: kinases in BCWM.1 cells (Homo sapiens, UniProt P11802); details: CDK4; Lys2; 1 μM; GF
Chain of kinases in BCWM.1 cells (Homo sapiens, UniProt P11802) (P11802 2-303 limits assumed): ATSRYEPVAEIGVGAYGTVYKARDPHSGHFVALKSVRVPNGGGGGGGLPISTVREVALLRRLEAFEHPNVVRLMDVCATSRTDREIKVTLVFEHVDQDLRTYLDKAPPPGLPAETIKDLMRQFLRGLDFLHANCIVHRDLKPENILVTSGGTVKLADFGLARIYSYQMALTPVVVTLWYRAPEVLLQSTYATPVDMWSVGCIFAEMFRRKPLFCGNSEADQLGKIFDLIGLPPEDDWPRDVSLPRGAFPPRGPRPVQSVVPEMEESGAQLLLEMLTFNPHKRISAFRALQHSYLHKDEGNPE
Experimental: as §1

[22] = molecular target: kinases in BCWM.1 cells (Homo sapiens, UniProt O00506); details: YSK1; Lys1; 1 μM, 90 min; GF
Experimental: as §1

[23] = molecular target: kinases in BCWM.1 cells (Homo sapiens, UniProt P49761); details: CLK3; ATP Loop; 1 μM; GF
Experimental: as §1

[24] = molecular target: kinases in BCWM.1 cells (Homo sapiens, UniProt P49840); details: GSK3A; Lys2; 1 μM; GF
Chain of kinases in BCWM.1 cells (Homo sapiens, UniProt P49840) (P49840 2-483 limits assumed): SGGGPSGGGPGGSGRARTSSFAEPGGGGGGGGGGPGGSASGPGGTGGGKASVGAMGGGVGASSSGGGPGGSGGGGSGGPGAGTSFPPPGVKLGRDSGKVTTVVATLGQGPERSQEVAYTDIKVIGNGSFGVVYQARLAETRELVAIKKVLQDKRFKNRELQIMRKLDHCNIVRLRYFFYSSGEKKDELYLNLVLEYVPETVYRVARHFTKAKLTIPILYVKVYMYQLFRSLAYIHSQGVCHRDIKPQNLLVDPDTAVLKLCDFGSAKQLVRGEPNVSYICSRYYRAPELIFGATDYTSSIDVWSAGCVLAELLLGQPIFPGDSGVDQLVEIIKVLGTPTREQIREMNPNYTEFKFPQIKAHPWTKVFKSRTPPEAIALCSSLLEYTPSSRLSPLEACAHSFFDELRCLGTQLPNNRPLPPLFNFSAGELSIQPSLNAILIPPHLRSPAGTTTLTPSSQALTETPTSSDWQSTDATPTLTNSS
Experimental: as §1

[25] = molecular target: kinases in BCWM.1 cells (Homo sapiens, UniProt Q86UX6); details: YANK3; Lys2; 1 μM, 90 min; GF
Experimental: as §1

[26] = molecular target: kinases in BCWM.1 cells (Homo sapiens, UniProt P06493); details: CDC2; Protein Kinase Domain; 1 μM; GF
Experimental: as §1

[27] = molecular target: kinases in BCWM.1 cells (Homo sapiens, UniProt Q9NWZ3); details: IRAK4; Lys2; 1 μM; GF
Experimental: as §1

[28] = molecular target: kinases in BCWM.1 cells (Homo sapiens, UniProt P23743); details: DGKA; ATP; 1 μM; GF
Experimental: as §1

[29] = molecular target: kinases in BCWM.1 cells (Homo sapiens, UniProt Q13163); details: MAP2K5; Lys2; 1 μM; GF
Experimental: as §1

[30] = molecular target: kinases in BCWM.1 cells (Homo sapiens, UniProt Q16566); details: CaMK4; Lys2; 1 μM; GF
Experimental: as §1

C=CC(=O)N1CC[C@H](Nc2nccc(Nc3ncc(C(=O)Nc4c(C)cccc4C)s3)n2)C1 [Example I-3]
% change of MS signal compared to control sample [1]: 30.5%

CCC(=O)N1CC[C@H](Nc2nccc(Nc3ncc(C(=O)Nc4c(C)cccc4C)s3)n2)C1 [Example I-9]
% change of MS signal compared to control sample [2]: −9.2% | % change of MS signal compared to control sample ([3]; ATP Loop): 0.4% and 1.8% | % change of MS signal compared to control sample ([3]; Lys1): 2.4% and 8% | % change of MS signal compared to control sample [4]: −23.6% and −22.7% | % change of MS signal compared to control sample [5]: >91% | % change of MS signal compared to control sample [6]: −22.8% and −23.9% | % change of MS signal compared to control sample [7]: −9.6% and −9.5% | % change of MS signal compared to control sample [8]: −20.6% and −21.5% | % change of MS signal compared to control sample [9]: −3.8% and 4% | % change of MS signal compared to control sample [10]: −13.4% and −5% | % change of MS signal compared to control sample [11]: 18.6% | % change of MS signal compared to control sample [12]: −22% and −18.5% | % change of MS signal compared to control sample [13]: −8.4% | % change of MS signal compared to control sample [14]: −3.1% and 3.1% | % change of MS signal compared to control sample [15]: 61.6% and 82.8% | % change of MS signal compared to control sample [16]: −16.2% and −8.3% | % change of MS signal compared to control sample [17]: 1.3% and 5.1% | % change of MS signal compared to control sample [18]: 96.7% and 70.7% | % change of MS signal compared to control sample [19]: −6% and 1.5% | % change of MS signal compared to control sample [20]: −26.4% and −21.7% | % change of MS signal compared to control sample [21]: 1.2% and 3.4% | % change of MS signal compared to control sample [22]: −20.8% | % change of MS signal compared to control sample [23]: −19% and −10.3% | % change of MS signal compared to control sample [24]: 2.3% and 1.9% | % change of MS signal compared to control sample [25]: −13.2% | % change of MS signal compared to control sample [26]: −2.6% and −3.2% | % change of MS signal compared to control sample [27]: −3.2% and 6.2% | % change of MS signal compared to control sample [28]: −1.5% and −6.6% | % change of MS signal compared to control sample [29]: 16.8% and 16.3% | % change of MS signal compared to control sample [30]: −10.3% and −13.1%
